From article PMC9544403, “Schwarzinicine A inhibits transient receptor potential canonical channels and exhibits overt vasorelaxation effects” (Phytotherapy Research, 2022)

What was measured:
Assay type in all cases: cell-based
[1] = molecular target: T1, hTRPC3 (Homo sapiens, UniProt Q13507); assay: fura-2 intracellular calcium assay, OAG-activated hTRPC3 overexpressed in HEK T-REx cells
T1 construct: gene TRPC3
T1 sequence (Q13507 1-921): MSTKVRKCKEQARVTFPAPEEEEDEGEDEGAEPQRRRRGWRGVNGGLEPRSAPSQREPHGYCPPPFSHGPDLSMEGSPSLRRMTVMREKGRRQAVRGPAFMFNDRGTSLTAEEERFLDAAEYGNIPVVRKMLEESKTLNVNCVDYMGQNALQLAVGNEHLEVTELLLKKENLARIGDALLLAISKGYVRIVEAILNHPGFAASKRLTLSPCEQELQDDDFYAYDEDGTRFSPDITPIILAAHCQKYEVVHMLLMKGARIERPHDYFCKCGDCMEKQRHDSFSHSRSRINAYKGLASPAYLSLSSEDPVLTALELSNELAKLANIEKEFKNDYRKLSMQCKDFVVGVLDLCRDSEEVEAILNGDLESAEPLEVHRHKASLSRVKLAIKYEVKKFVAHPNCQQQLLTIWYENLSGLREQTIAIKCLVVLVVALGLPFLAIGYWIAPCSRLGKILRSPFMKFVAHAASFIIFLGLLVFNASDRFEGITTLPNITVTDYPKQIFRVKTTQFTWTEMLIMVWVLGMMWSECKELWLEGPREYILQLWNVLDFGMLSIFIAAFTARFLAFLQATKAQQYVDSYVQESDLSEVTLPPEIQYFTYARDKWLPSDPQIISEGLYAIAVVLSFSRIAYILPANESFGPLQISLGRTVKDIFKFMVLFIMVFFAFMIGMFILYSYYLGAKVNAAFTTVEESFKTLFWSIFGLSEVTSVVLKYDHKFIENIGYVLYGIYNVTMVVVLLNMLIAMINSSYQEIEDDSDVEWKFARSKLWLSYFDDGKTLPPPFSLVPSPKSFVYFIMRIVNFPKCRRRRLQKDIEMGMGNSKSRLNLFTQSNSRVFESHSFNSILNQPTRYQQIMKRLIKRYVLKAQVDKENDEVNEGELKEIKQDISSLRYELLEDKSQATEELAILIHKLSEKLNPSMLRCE

[2] = molecular target: T2, hTRPC5 (Homo sapiens, UniProt Q9UL62); assay: fura-2 intracellular calcium assay, S1P-activated hTRPC5 overexpressed in HEK T-REx cells
T2 construct: gene TRPC5
T2 sequence (Q9UL62 1-973): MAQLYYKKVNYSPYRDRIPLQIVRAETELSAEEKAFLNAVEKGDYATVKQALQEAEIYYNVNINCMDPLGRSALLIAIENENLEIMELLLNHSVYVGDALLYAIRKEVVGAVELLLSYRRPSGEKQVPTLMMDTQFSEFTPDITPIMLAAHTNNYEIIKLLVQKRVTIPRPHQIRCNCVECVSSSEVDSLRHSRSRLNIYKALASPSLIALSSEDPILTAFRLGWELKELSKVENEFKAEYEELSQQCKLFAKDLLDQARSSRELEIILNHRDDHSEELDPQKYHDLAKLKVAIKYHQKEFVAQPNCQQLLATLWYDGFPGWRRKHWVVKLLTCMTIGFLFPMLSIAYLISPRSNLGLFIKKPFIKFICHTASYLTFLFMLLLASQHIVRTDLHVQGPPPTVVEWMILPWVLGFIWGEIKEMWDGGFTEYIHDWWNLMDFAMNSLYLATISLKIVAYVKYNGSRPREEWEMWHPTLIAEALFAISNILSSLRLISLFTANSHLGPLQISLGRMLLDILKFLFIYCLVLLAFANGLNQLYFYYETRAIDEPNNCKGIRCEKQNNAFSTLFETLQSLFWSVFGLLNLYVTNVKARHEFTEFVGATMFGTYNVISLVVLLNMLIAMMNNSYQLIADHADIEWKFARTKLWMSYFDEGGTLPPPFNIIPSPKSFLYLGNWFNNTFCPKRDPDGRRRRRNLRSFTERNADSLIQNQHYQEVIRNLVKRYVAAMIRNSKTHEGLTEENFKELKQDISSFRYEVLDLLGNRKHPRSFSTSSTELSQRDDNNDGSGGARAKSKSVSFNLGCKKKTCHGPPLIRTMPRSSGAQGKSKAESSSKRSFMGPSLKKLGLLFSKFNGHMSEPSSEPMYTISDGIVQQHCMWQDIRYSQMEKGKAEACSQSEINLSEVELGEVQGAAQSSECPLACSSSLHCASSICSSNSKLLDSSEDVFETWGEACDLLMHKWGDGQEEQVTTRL
Excerpt: fura-2 intracellular calcium assay, S1P-activated hTRPC5 overexpressed in HEK T-REx cells on hTRPC5 | S1P‐evoked calcium influx mediated by hTRPC4 and hTRPC5 were inhibited by schwarzinicine A

[3] = molecular target: T3, hTRPC6 (Homo sapiens, UniProt Q9Y210); assay: fura-2 intracellular calcium assay, OAG-activated hTRPC6 transfected in HEK […] cells
T3 construct: gene TRPC6
T3 sequence (Q9Y210 1-931): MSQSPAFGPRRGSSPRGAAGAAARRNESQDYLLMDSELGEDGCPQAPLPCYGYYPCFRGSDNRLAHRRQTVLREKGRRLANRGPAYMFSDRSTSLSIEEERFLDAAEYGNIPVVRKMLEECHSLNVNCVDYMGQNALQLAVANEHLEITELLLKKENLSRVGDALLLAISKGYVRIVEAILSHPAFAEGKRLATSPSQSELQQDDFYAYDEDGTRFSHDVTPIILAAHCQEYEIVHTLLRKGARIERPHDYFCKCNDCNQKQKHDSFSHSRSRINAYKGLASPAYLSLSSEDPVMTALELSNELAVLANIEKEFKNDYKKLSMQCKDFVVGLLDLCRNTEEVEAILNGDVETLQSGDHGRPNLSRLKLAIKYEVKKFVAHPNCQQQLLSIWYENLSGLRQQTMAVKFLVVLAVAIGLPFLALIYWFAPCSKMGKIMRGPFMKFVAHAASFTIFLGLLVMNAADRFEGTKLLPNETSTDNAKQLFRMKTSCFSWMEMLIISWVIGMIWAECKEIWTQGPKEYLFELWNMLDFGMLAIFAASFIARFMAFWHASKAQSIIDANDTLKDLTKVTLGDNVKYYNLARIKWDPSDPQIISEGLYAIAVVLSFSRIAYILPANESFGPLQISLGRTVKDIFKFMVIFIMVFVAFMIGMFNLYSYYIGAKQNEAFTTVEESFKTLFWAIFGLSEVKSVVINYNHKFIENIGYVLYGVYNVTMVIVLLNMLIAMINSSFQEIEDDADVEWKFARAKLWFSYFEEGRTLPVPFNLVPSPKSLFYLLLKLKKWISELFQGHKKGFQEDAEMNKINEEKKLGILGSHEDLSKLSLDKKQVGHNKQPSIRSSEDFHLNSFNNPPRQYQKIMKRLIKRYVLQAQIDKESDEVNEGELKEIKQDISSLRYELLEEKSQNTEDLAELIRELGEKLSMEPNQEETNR

[4] = molecular target: T4, hTRPC4 (Homo sapiens, UniProt Q9UBN4); assay: fura-2 intracellular calcium assay, S1P-activated hTRPC4 overexpressed in HEK T-REx cells
T4 construct: gene TRPC4
T4 sequence (Q9UBN4 1-977): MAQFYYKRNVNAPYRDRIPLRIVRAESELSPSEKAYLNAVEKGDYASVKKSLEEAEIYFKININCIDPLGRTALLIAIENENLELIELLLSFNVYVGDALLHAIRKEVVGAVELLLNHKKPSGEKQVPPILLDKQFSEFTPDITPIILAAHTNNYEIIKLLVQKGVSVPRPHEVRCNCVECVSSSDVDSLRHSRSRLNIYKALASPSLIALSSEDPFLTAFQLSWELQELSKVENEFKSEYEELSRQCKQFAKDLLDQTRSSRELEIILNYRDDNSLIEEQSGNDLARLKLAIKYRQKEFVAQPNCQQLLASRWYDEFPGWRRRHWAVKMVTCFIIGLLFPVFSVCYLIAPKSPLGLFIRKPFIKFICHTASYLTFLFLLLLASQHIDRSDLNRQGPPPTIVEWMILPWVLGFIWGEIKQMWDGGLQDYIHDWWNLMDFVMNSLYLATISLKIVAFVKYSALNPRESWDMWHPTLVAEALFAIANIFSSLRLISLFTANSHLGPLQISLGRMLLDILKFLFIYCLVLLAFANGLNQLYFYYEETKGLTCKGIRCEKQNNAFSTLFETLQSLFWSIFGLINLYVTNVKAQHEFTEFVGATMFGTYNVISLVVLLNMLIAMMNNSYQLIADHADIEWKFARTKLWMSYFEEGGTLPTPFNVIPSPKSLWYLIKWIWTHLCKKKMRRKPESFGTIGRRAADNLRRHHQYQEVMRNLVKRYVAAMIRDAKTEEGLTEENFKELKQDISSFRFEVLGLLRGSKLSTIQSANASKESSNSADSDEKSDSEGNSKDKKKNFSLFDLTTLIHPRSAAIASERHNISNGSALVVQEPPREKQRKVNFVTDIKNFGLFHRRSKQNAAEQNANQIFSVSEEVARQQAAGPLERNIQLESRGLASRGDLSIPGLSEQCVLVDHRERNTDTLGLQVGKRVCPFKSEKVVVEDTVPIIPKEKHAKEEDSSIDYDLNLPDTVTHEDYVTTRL

Structure (SMILES): COc1ccc(CCNC(CCc2ccc(OC)c(OC)c2)Cc2ccc(OC)c(OC)c2)cc1OC (racemic) [schwarzinicine A, N‐(3,4‐dimethoxyphenethyl)‐1,4‐bis(3,4‐dimethoxyphenyl)butan‐2‐amine]
- IC50 [1]: 3 µM
- IC50 [2]: 19 µM
- IC50 [3]: 7 µM
- IC50 [4]: 17 µM
